Where “and” joins values, the source holds several entries; their conditions need not be identical. Identical values can stand only once. Like-named read-outs stand apart in the source and are kept apart here.
How the values were obtained:
prothrombin time = test: Prothrombin time in deep vein thrombosis model; format: in vivo, Macaca fascicularis; settings: non-human primate, n=4
Description: The prothrombin time (PT) assay is a clotting assay that is used to determine deficiencies of clotting factor activity in the extrinsic pathway. The assay measures time to clotting after the addition of thromboplastin (human tissue factor). Normal human pooled plasma is incubated with 100 uM compound or saline in a coagulation machine. Thromboplastin is added and time to clotting is measured. Compounds with greater than 3×normal PT of 11.0 seconds are further analyzed by concentration response to determine at what concentration the prothrombin time is prolonged by 2×normal.
(§1) Non-human primates (Macaca fascicularis) are lightly anesthetized with ketamine to facilitate placement of an endotracheal tube and a femoral venous catheter. Animals are put into and maintained in a deep plane of anesthesia using pentobarbital via the femoral vein cannula. A jugular vein is cannulated for infusion of drug and a carotid artery is cannulated for blood sampling and for monitoring hemodynamic parameters.
The table below depicts the effects of Aspirin coadministered with a compound of the present invention (compounds 54 and 55 are salts of the compound tested) on thrombus formation, prothrombin time and bleeding time in a non-human primate model of deep vein thrombosis.

bleeding time = test: Bleeding time in deep vein thrombosis model; format: in vivo, Macaca fascicularis; settings: non-human primate, n=4
Description: To measure bleeding time, a blood pressure cuff is placed on the upper arm and inflated to 40 mm Hg. Two uniform cuts are made in the volar surface of the forearm, the blood from the cuts is collected onto a gauze pad every 30 sec. The time from when the cuts are made until the bleeding stops is considered the bleeding time. All gauze used to collect blood is placed in Drabkin's solution and the amount of blood lost from the bleeding time site is calculated based on the amount of hemoglobin measured in the Drabkin's solution.

[1] = test system: thrombus formation in vena cava; test: Deep vein thrombosis model, thrombus accumulation on threads in vena cava; format: in vivo, Macaca fascicularis; settings: non-human primate, n=4
Excerpt: This model measures the accumulation of thrombus on a set of four threads (4-0 surgical silk) that are introduced into the vena cava of a non-human primate. The device used to introduce the threads consists of a copper wire (12 cm) contained in a sheath of polyethylene tubing (9 cm). Four 4-0 surgical silk threads (3 cm) are tied to the end of the wire and retracted into the tubing. When the device is inserted into the iliac vein, the wire is advanced introducing the threads into the vena cava between the bifurcation and the left renal vein.
as §1
The abdominal cavity is opened and an ultrasonic flow probe placed on the left iliac vein. The right iliac vein (RIV) is dissected free of surrounding tissue for a length of approximately 4 cm. The RIV is ligated approximately 4 cm distal to the bifurcation of the abdominal vena cava and a second ligature is placed, loosely, approximately 2 cm distal to the bifurcation. An incision is made in the RIV between the two ligatures, the device described above introduced into the iliac vein and the threads advanced into the vena cava. Every study consists of three thrombus measurements:
Control—Saline infusion. Threads are introduced and left in for 30 min, removed and thrombus weighed.
Treatment 1—Aspirin administered as a bolus or compound as an infusion. For aspirin treatment, aspirin is administered as a bolus and a 30 min equilibration period is allowed to assure the platelets are inhibited. For compound treatment, infusion is started and allowed to run for 30 min to reach steady-state blood levels of compound. Threads are introduced and left in for 30 min, removed and thrombus weighed;
Treatment 2—Compound administered as an infusion. Compound infusion is started and allowed to run for 30 min to reach steady-state blood levels of compound. Threads are introduced and left in for 30 min, removed and thrombus weighed.
During the 30 min equilibration/infusion periods of Treatment 1 and Treatment 2, a piece of tubing containing a copper wire, but no threads, is introduced into the vein to maintain the integrity of the vessel. After the threads have been in the vessel for 30 min, the entire device is removed from the vessel and the threads are cut from the device and weighed. The weight of the threads prior to insertion in the vessel is subtracted to get the net thrombus weight

[2] = biological target: T1, recombinant soluble tissue factor and recombinant human factor VIIa (TF-VIIa) (Homo sapiens, UniProt P08709); test: TF-VIIa assay (chromogenic substrate hydrolysis); format: biochemical; settings: reported only as less than or greater than 0.1 uM
T1 construct: conversion of coagulation factor VII to VIIa by factor Xa; purchased American Diagnostica, Greenwich CT; host or cells: soluble TF made in house in E. coli
Method in brief: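 Chromogenic read at OD405, compared with control for percent inhibition. Substrate N-methylsulfonyl-D-phe-gly-arg-p-nitroaniline at 0.4 mM is cleaved by recombinant human VIIa (2 nM) complexed with soluble TF (100 nM). Buffer: pH 8.0 Tris-HCl 50 mM, CaCl2 5 mM, NaCl 100 mM, BSA 0.1%.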

[3] = test system: Normal human pooled plasma; test: Prothrombin time (PT) clotting assay; format: biochemical; settings: concentration at which prothrombin time is prolonged by 2x normal, reported as less than or greater than 50 uM
Method in brief: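 Normal human pooled plasma incubated with 100 uM compound or saline, then thromboplastin (human tissue factor) added and clotting time recorded in a coagulation machine. Compounds exceeding 3× normal PT (11.0 s) are titrated to find the concentration doubling PT.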

Human factor Xa = biological target: T2, Human factor Xa (Homo sapiens, UniProt P00742); test: Xa assay (chromogenic substrate S-2765); format: biochemical; settings: reported only as less than or greater than 30 uM; read-out: Factor Xa (II) IC50
T2 construct: purchased Enzyme Research Laboratories, South Bend Ind
Method in brief: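 Chromogenic readout: S-2765 hydrolysis (0.15 mM) by 0.3 nM human FXa was monitored at 405 nm after 60 min at room temperature, with a time-zero background read. Buffer: 50 mM Tris-HCl, pH 8.0, 100 mM NaCl, 0.1% BSA. Inhibition is relative to buffer-only controls.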

Human thrombin = biological target: T3, Human thrombin (Homo sapiens, UniProt P00734); test: Thrombin assay (chromogenic substrate); format: biochemical
T3 construct: converts prothrombin (II) to thrombin (IIa); purchased Calbiochem, La Jolla, Calif
Method in brief: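 Percent inhibition derived by comparing OD405 nm of compound-treated and control samples. Thrombin cleavage of a p-nitroanilide chromogenic substrate provides the signal.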

[4] = Aspirin bolus followed by compound infusion 50 μg/kg/min (coadministered)
[5] = Aspirin bolus followed by compound infusion 100 μg/kg/min (coadministered)
[6] = compound infusion 100 μg/kg/min, no aspirin
[7] = compound infusion 200 μg/kg/min, no aspirin
[8] = reported only as less than or greater than 30 uM, read-out: Thrombin (II) IC50

T2 sequence (P00742 235-488 limits assumed): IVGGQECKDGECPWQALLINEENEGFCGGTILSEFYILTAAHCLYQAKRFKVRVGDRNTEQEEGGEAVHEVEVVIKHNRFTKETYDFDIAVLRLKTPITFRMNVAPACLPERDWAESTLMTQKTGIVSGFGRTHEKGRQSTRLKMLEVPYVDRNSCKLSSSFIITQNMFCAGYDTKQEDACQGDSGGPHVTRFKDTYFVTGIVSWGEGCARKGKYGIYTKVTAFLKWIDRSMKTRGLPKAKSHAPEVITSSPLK
T2 sequence (P00742 41-179 limits assumed): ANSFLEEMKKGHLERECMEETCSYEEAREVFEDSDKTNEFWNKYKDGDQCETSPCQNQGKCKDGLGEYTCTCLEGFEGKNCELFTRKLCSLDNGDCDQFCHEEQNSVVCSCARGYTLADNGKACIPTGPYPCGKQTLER
T1 sequence (P08709 213-466 limits assumed): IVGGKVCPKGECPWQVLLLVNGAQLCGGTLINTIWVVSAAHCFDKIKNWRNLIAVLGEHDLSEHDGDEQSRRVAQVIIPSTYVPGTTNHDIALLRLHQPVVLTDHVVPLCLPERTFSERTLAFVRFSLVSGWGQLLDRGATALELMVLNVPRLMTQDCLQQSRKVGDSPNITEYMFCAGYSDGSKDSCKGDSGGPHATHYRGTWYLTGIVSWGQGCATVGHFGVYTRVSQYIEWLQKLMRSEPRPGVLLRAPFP
T1 sequence (P08709 61-212 limits assumed): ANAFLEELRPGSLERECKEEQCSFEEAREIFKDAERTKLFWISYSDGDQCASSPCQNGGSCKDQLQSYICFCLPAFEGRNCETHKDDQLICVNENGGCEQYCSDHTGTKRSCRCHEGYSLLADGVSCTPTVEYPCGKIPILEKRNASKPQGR
T1 sequence (P13726 33-251 partner limits assumed): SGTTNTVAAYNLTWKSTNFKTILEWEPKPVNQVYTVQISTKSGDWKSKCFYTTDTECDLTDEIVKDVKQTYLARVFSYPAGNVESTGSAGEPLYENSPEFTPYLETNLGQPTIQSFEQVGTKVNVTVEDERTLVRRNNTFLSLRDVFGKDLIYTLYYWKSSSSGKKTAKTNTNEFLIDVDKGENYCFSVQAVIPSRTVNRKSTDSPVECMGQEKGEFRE

Row | Structure (SMILES) | IC50 [2] [µM] | PT (Prothrombin time) 2xPT [3] [µM] | IC50 (Human factor Xa) [µM] | IC50 (Human thrombin; [8]) [µM] | also measured
1 | CC(=O)Oc1ccccc1C(=O)O [Aspirin, reference compound] | – | – | – | – | Prothrombin Time (prothrombin time; Aspirin bolus alone): 11.8 s and 11.5 s; Bleeding Time (bleeding time; Aspirin bolus alone): 4.6 min and 4.3 min; Net Thrombus Wt ([1]; Aspirin bolus alone): 30.9 mg and 26.7 mg; Thrombus Wt: % Δ from Control ([1]; Aspirin bolus alone): −12% and −4%
2 | CC(C)Nc1ncc(-c2cc(N)cc(O)c2)n(CC(=O)NCc2ccc(C(=N)N)cc2)c1=O [Compounds 54 and 55] | – | – | – | – | Prothrombin Time (prothrombin time; [4]): 17.3 s; Prothrombin Time (prothrombin time; [5]): 22.4 s; Prothrombin Time (prothrombin time; [6]): 22.7 s; Prothrombin Time (prothrombin time; [7]): 46.0 s; Bleeding Time (bleeding time; [4]): 4.1 min; Bleeding Time (bleeding time; [5]): 4.7 min; Bleeding Time (bleeding time; [7]): 3.9 min; Net Thrombus Wt [1, 4]: 19.5 mg; Thrombus Wt: % Δ from Control [1, 4]: −34%; Net Thrombus Wt [1, 5]: 3.6 mg; Thrombus Wt: % Δ from Control [1, 5]: −89%; Net Thrombus Wt [1, 6]: 15.3 mg; Thrombus Wt: % Δ from Control [1, 6]: −56%; Net Thrombus Wt [1, 7]: 5.1 mg; Thrombus Wt: % Δ from Control [1, 7]: −85%
3 | CCC(CC)CS(=O)(=O)c1cc(N)cc(-c2cnc(NC(C)C)c(=O)n2CC(=O)NCc2ccc(C(=N)N)cc2)c1.O=C(O)C(F)(F)F.O=C(O)C(F)(F)F [Example 229] | < 0.1 | <50.0 | > 30 | > 30 | –
4 | CCCCS(=O)(=O)c1cc(N)cc(-c2cnc(NC(C)C)c(=O)n2CC(=O)NCc2ccc(C(=N)N)cc2)c1.O=C(O)C(F)(F)F.O=C(O)C(F)(F)F [Example 230] | < 0.1 | <50.0 | > 30 | > 30 | –
5 | CCC(CC)S(=O)(=O)c1cc(N)cc(-c2cnc(NC(C)C)c(=O)n2CC(=O)NCc2ccc(C(=N)N)cc2)c1.O=C(O)C(F)(F)F.O=C(O)C(F)(F)F [Example 231] | < 0.1 | <50.0 | > 30 | > 30 | –
6 | CCS(=O)(=O)c1cc(N)cc(-c2cnc(NC(C)C)c(=O)n2CC(=O)NCc2ccc(C(=N)N)cc2)c1.O=C(O)C(F)(F)F.O=C(O)C(F)(F)F [Example 232] | < 0.1 | <50.0 | > 30 | > 30 | –
7 | CC(C)Nc1ncc(-c2cc(N)cc(S(=O)(=O)CC3CCCCC3)c2)n(CC(=O)NCc2ccc(C(=N)N)cc2)c1=O.O=C(O)C(F)(F)F.O=C(O)C(F)(F)F [Example 233] | < 0.1 | <50.0 | > 30 | > 30 | –
8 | CC(C)Nc1ncc(-c2cc(N)cc(S(=O)(=O)C3CCCC3)c2)n(CC(=O)NCc2ccc(C(=N)N)cc2)c1=O.O=C(O)C(F)(F)F.O=C(O)C(F)(F)F [Example 235] | < 0.1 | <50.0 | > 30 | > 30 | –
9 | CCC(C)CS(=O)(=O)c1cc(N)cc(-c2cnc(NC(C)C)c(=O)n2CC(=O)NCc2ccc(C(=N)N)cc2)c1.O=C(O)C(F)(F)F.O=C(O)C(F)(F)F (centres unmarked) [Example 237] | < 0.1 | <50.0 | > 30 | > 30 | –
10 | CC(C)Nc1ncc(-c2cc(N)cc(OC(=O)C3CC3)c2)n(CC(=O)NCc2ccc(C(=N)N)cc2)c1=O.O=C(O)C(F)(F)F.O=C(O)C(F)(F)F [Example 238] | < 0.1 | <50.0 | > 30 | > 30 | –
11 | CC(C)Nc1ncc(-c2cc(N)cc(OC(=O)NCc3ccccc3)c2)n(CC(=O)NCc2ccc(C(=N)N)cc2)c1=O.O=C(O)C(F)(F)F.O=C(O)C(F)(F)F [Example 239] | < 0.1 | <50.0 | > 30 | – | IC50 (Human thrombin; Thrombin (II) IC50, reported only as less than or greater than 30 uM): > 30 µM
12 | CC[C@@H](C)NC(=O)c1cc(N)cc(-c2cnc(NC(C)C)c(=O)n2CC(=O)NCc2ccc(C(=N)N)cc2O)c1.O=C(O)C(F)(F)F [Example 240] | < 0.1 | <50.0 | > 30 | > 30 | –

From patent US20040106626A1, “6-Membered unsaturated heterocyclic compounds useful for selective inhibition of the coagulation cascade” (Pharmacia Corporation, priority 2001, published 2004)
